According to PubChem BioAssay (NCI):
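96-well plates; 48 h exposure; 5 concentrations. Endpoints by linear interpolation between flanking doses. Not reached: highest tested concentration assigned. GI50 marks 50% less growth. TGI is the concentration that stops growth completely.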

How the values were obtained:
Assay in all cases: NCI anticancer screen, dose series, 48 h
OVCAR-8 ovarian = tested on: OVCAR-8 ovarian
U251 CNS = tested on: U251 CNS
UACC-62 melanoma = tested on: UACC-62 melanoma
SK-MEL-28 melanoma = tested on: SK-MEL-28 melanoma
MCF7 breast = tested on: MCF7 breast
SF-295 CNS = tested on: SF-295 CNS
KM12 colon = tested on: KM12 colon
786-0 renal = tested on: 786-0 renal

| Structure (SMILES) | GI50 (OVCAR-8 ovarian) [µM] | TGI (OVCAR-8 ovarian) [µM] | GI50 (U251 CNS) [µM] | TGI (U251 CNS) [µM] | GI50 (UACC-62 melanoma) [µM] | TGI (UACC-62 melanoma) [µM] | GI50 (SK-MEL-28 melanoma) [µM] | TGI (SK-MEL-28 melanoma) [µM] | GI50 (MCF7 breast) [µM] | TGI (MCF7 breast) [µM] | GI50 (SF-295 CNS) [µM] | TGI (SF-295 CNS) [µM] | GI50 (KM12 colon) [µM] | TGI (KM12 colon) [µM] | GI50 (786-0 renal) [µM] | TGI (786-0 renal) [µM] |
| --- | --- | --- | --- | --- | --- | --- | --- | --- | --- | --- | --- | --- | --- | --- | --- | --- |
| COc1cc2c(=O)n(CCN(C)C)c3c4cc5c(cc4ccc3c2cc1OC)OCO5 | 0.478 | > 50 | 0.153 | 1.92 | 0.115 | 0.435 | 0.747 | 3.3 | 0.102 | 6.16 | 0.155 | 3.15 | 0.53 | 4.04 | 0.166 | 0.672 |
| CN1CCN(Cc2ccc3c(NNC(=O)c4ccccc4)nc4cc(F)ccc4n23)CC1 | 0.372 | 46.4 | 0.373 | 19 | 0.36 | 3.49 | 0.566 | 17.8 | 0.359 | 11.8 | 0.27 | 4.89 | 0.42 | > 96.4 | 0.376 | 17.8 |
| Clc1ccccc1C(Nc1ncccn1)Nc1ncccn1 |  | > 100 |  | > 100 |  | > 100 |  | > 100 |  | > 100 |  | > 100 |  | > 100 |  | > 100 |
| CC12CCC3c4cc(Br)c(O)c(Br)c4CCC3C1CCC2O (configuration not stated) |  | 42.1 |  | 29.6 |  | 33.1 |  | 34.9 |  | 74.6 |  | 33.4 |  | 26.6 |  | 42 |
| O=c1cc(-c2ccccc2)oc2cc(OC/C(=N/O)c3ccc(F)cc3)ccc12 | 32.2 | > 50 | 22 | > 50 | 14.8 | > 50 | 27.1 | > 50 | 11.9 | 31 | 8.93 | 24.6 | 11.3 | 29.2 | 39.6 | > 50 |
| NC(=S)N=Nc1c(O)c2ccccc2c2ccccc12 | 4.32 | 22.7 | 3.07 | 11.4 | 1.69 | 3.19 | 2.98 | 10 | 1.88 | 4.54 | 3.01 | 10.2 | 48.2 | > 100 | 31.7 | 88.2 |
| COc1ccc(Cn2cc3c(c2-c2ccccc2)CCc2cnoc2-3)cc1N | 0.468 | > 100 | 0.287 | > 100 | 0.182 | > 100 | 0.247 | > 100 | 0.05 | > 100 | 0.154 | 3.28 | 0.0788 | 2.58 | 0.602 | > 100 |
| CCOC(=O)/C=C/C(=O)[C@H](CC(C)C)NC(=O)[C@H](Cc1ccccc1)NC(=O)OCc1ccccc1 | 18.4 | 60.4 | 13.2 | 27.2 | 3.99 | 16.5 | 3.12 | 12 | 1.73 | 4.8 | 16.2 | 29.8 | 12.2 | 27.8 | 1.84 | 3.4 |
| C[C@@H]1COCCN1c1cc(C2([S@@](C)(=N)=O)CC2)nc(-c2ccnc3[nH]ccc23)n1 | 10.9 | > 100 | 12.3 | > 100 | 4.29 | 36.6 | 9.76 | > 88.9 | 0.956 | > 100 | 3.35 | 32.5 | 5.8 | > 100 | 2.7 | 26.8 |
| O=C(Nc1ccccc1O)c1ccc(NS(=O)(=O)c2cccc3cccnc23)cc1 | 0.665 | 7.25 | 1.3 | 5.4 | 0.539 | 3.49 | 0.834 | 4.91 | 0.941 | > 18.2 | 1.09 | 4.77 | 2.73 | 7.29 | 2.4 | 6.4 |
| O=C(C[P+](c1ccccc1)(c1ccccc1)c1ccccc1)C[P+](c1ccccc1)(c1ccccc1)c1ccccc1 | 0.318 | 2.31 | 0.828 | 2.23 | 0.256 | 0.865 | 0.332 | 1.29 | 0.332 | 1.6 | 1.46 | 2.98 | 1.13 | 2.63 | 0.496 | 1.16 |
| N#Cc1c(N)nc(NCc2ccccc2)c(C#N)c1-c1ccc(Cl)cc1Cl | > 67 | > 100 | > 61.9 | > 100 | > 100 | > 100 | > 100 | > 100 | > 100 | > 100 | > 63.9 | > 100 | > 84.5 | > 100 | > 100 | > 100 |
| CC1=C[C@H]2C[C@H](C)[C@H]3CC[C@H](C)[C@]4(C1)C(=O)C(O)=C(C)C(=O)[C@@]324 | 40.4 | > 100 | 32.1 | > 100 | 22 | 80.2 | 26 | > 100 | > 100 | > 100 | > 100 | > 100 | 29.4 | > 100 | 30.1 | > 100 |
| COc1ccccc1NS(=O)(=O)c1ccc2oc(SC(C)C)nc2c1 | 25.6 | > 100 | 33.1 | > 100 | 18.5 | > 100 | 37.5 | > 100 | 15.5 | > 100 | 11.1 | 37 | 18.5 | 49 | 26.6 | > 100 |
| COc1ccc(C(CC(=O)c2ccccc2)C(C(=O)c2ccccc2)C(c2ccc(OC)cc2)C2C(=O)NC(=S)NC2=O)cc1 (configuration not stated) | 13.5 | 45.6 | 7.42 | 23.6 | 13.3 | 34 | 16 | > 100 | 16.1 | > 100 | 11.4 | 42.7 | 8.12 | 39.8 | 21.7 | > 100 |
| COc1cccc(/C(C)=N/NC(=O)CSc2nc3ccccc3c(=O)n2CCc2ccc(S(N)(=O)=O)cc2)c1 | 2.32 | 4.88 | 1.98 | 3.67 | 8.32 | 33.5 | 10.8 | 38.7 | 3.14 | 15.4 | 4.02 | 16.3 | 2.8 | 7.67 | 1.47 | 3.95 |

| Structure (SMILES) | GI50 (OVCAR-8 ovarian) [µM] | TGI (OVCAR-8 ovarian) [µM] | GI50 (U251 CNS) [µM] | TGI (U251 CNS) [µM] | GI50 (UACC-62 melanoma) [µM] | TGI (UACC-62 melanoma) [µM] | GI50 (SK-MEL-28 melanoma) [µM] | TGI (SK-MEL-28 melanoma) [µM] | GI50 (MCF7 breast) [µM] | TGI (MCF7 breast) [µM] | GI50 (SF-295 CNS) [µM] | TGI (SF-295 CNS) [µM] | GI50 (KM12 colon) [µM] | TGI (KM12 colon) [µM] | GI50 (786-0 renal) [µM] | TGI (786-0 renal) [µM] |
| --- | --- | --- | --- | --- | --- | --- | --- | --- | --- | --- | --- | --- | --- | --- | --- | --- |
| Cc1ccc(-c2nc(-c3cn(C)c4ncccc34)cs2)cc1 | 8.99 | 38.9 | 4.4 | 17 | 3.17 | 16.3 | 10.2 | 26.4 | 2.39 | 15.9 | 2.3 | 11.1 | 1.2 | 14 | 6.09 | 19.8 |
| CN(C)c1ccc(C(c2ccc(Cl)cc2)c2ccc(N(C)C)cc2)cc1 |  | > 100 |  | > 100 |  | > 100 |  | > 100 |  | > 100 |  | > 100 |  | > 100 |  | > 100 |
| c1ccc([As]=[As]c2ccccc2)cc1 (configuration not stated) | 1.44 | 3.69 | 0.752 | 2.05 | 1.12 | 2.41 | 0.922 | 2.32 | 0.251 | 1.07 | 2.27 | 5.75 | 1.87 | 3.69 | 1.28 | 3.19 |
| CCS(=O)(=O)c1ccc(OC)c(Nc2ncc(-c3ccccc3Cl)o2)c1 | 9.9 | > 25 | 18.1 | > 25 | 11.3 | > 25 | > 25 | > 25 | 8.27 | > 25 | 9.43 | > 25 | 7.59 | > 25 | > 17.4 | > 25 |
| O=C(CC(=O)c1cccc(Cl)c1)c1cccc(Cl)c1 | 2.6 | > 100 | 1 | > 100 | 2.82 | > 100 | 2.7 | > 100 | 1.72 | > 100 | 1.01 | > 100 | 3.02 | > 100 | 3.86 | > 100 |
| N#CN1CC[C@H](C(=O)Nc2cc3cc(C(N)=O)ccc3cn2)C1 | 0.0993 | > 46.3 | 0.0815 | 38.4 | 0.0587 | 0.399 | 0.117 | 9.41 | 0.0214 | > 100 | 0.392 | > 47.7 | 0.0566 | 12 | 0.222 |  |
| Cc1cc(Cl)ccc1Nc1nc(C(F)(F)F)ccc1C(=O)N/N=C/c1ccccc1Cl | 2.16 | > 92.7 | 0.526 | 4.86 | 1.43 | 5.36 | 1.38 | 6.88 | 0.896 | 10.6 | 0.691 | 4.12 | 0.902 | 8.14 | 0.672 | 2.67 |
| O=c1oc2ccc(-c3ccc(F)cc3F)cc2c(=O)n1-c1ccc(Cl)c(C(F)(F)F)c1 | 2.99 | > 100 | 2.36 | 12.5 | 1.55 | 4.15 | 2.05 | 5.77 | 2.45 | > 100 | 1.81 | 3.62 | 2.36 | 5.85 | 2.34 | 5.68 |
| Oc1[nH]c2ccccc2c1N=Nc1c(F)c(F)c(F)c(F)c1F |  | > 100 |  | > 100 |  | > 100 |  | > 100 |  | > 100 |  | > 100 |  | > 61.9 |  | 50.5 |
| Cc1cn(-c2ccc(S(C)(=O)=O)cc2)c(-c2ccc(Cl)cc2)n1 | > 100 | > 100 | > 100 | > 100 | > 100 | > 100 | > 100 | > 100 | > 100 | > 100 | > 100 | > 100 | > 100 | > 100 | > 100 | > 100 |
| O=S(=O)(Nc1ccc(F)c(Cl)c1)c1ccc(-c2cnc(C3CC3)o2)cc1 | 0.588 | 14.6 | 0.438 | 13.7 | 0.183 | 5.51 | 1.73 | 14.5 | 0.126 | 9.83 | 0.199 | 1.49 | 0.151 | 9.3 | 0.495 | 13.1 |
| COc1cc(/C=C/c2cc(/C=C/c3ccc(O)c(OC)c3)n(C(=O)Nc3ccc(Cl)cc3)n2)ccc1O | 0.641 | 3.31 | 0.525 | 5.33 | 0.551 | 2.24 | 1.07 | 4.07 | 0.486 | 3.39 | 1.5 | 7.86 | 0.354 | 1.84 | 0.515 | 1.85 |
| COc1cc(C2C3=C(COC3=O)N(CCO)c3cc4c(cc32)OCO4)cc(OC)c1O (configuration not stated) | 3.17 | > 50 | 2.19 | > 50 |  | > 50 | > 50 | > 50 | 1.19 | > 50 | 1.47 | > 14.6 | 1.35 | > 20.6 | 2.02 | > 50 |
| CC(=O)c1cc(C(=O)c2ccc3c(c2)Sc2ccccc2N3)c2c(C)cccn12 | 0.374 | > 31.8 | 0.325 | 24 | 0.145 | 38.1 | 2.51 | > 100 | 0.117 | > 100 | 0.188 | 15.8 | 0.307 | > 100 | 0.488 | 7.29 |
| CNS(=O)(=O)OCC1OC(n2cnc3c(N)ncnc32)C(O)C1O (configuration not stated) | > 100 | > 100 | > 100 | > 100 | > 100 | > 100 | > 100 | > 100 | > 100 | > 100 | > 100 | > 100 | > 100 | > 100 | > 100 | > 100 |
